From the kinase profiling compilation of Christmann-Franck et al. (2016)

How the values were obtained:
Test in all cases: radiometric filter-binding kinase assay
MAPK11 (human) = MAPK11 (human) (UniProt Q15759)
DYRK2 (human) = DYRK2 (human) (UniProt Q92630)
BTK (human) = BTK (human) (UniProt Q06187)
MARK4 (human) = MARK4 (human) (UniProt Q96L34)
INSRR (human) = INSRR (human) (UniProt P14616)
SRPK1 (human) = SRPK1 (human) (UniProt Q96SB4)
CLK2 (human) = CLK2 (human) (UniProt P49760)
CSNK1D (human) = CSNK1D (human) (UniProt P48730)
INSR (human) = INSR (human) (UniProt P06213)
YES1 (human) = YES1 (human) (UniProt P07947)
FLT1 (human) = FLT1 (human) (UniProt P17948)
RPS6KA1 KD1 KD2 (human) = RPS6KA1 KD1 KD2 (human) (UniProt Q15418)
NEK2 (human) = NEK2 (human) (UniProt P51955)
JAK2 JH1 JH2 (human) = JAK2 JH1 JH2 (human) (UniProt O60674)
MARK3 (human) = MARK3 (human) (UniProt P27448)
PRKCA (human) = PRKCA (human) (UniProt P17252)
RIPK2 (human) = RIPK2 (human) (UniProt O43353)
HIPK1 (human) = HIPK1 (human) (UniProt Q86Z02)
IRAK4 (human) = IRAK4 (human) (UniProt Q9NWZ3)
MAPK15 (human) = MAPK15 (human) (UniProt Q8TD08)
CSNK2A1 (human) = CSNK2A1 (human) (UniProt P68400)
MAP3K9 (human) = MAP3K9 (human) (UniProt P80192)
[1] = system: RPS6KB1 (human), P23443 [T412E]
MAPKAPK3 (human) = MAPKAPK3 (human) (UniProt Q16644)
AURKA (human) = AURKA (human) (UniProt O14965)
MAPK1 (human) = MAPK1 (human) (UniProt P28482)
MAP3K1 (human) = MAP3K1 (human) (UniProt Q13233)
NEK6 (human) = NEK6 (human) (UniProt Q9HC98)
RPS6KA5 KD1 KD2 (human) = RPS6KA5 KD1 KD2 (human) (UniProt O75582)
HIPK2 (human) = HIPK2 (human) (UniProt Q9H2X6)
[2] = target: STK11 CAB39 STRADA (human) (UniProt Q9Y376+Q7RTN6+Q15831)
[3] = system: AKT2 (human), P31751 [S474D]
MKNK2 (human) = MKNK2 (human) (UniProt Q9HBH9)
MAPK14 (human) = MAPK14 (human) (UniProt Q16539)
NTRK1 (human) = NTRK1 (human) (UniProt P04629)

Sequence of MAPK11 (human) (Q15759 whole entry, looked up): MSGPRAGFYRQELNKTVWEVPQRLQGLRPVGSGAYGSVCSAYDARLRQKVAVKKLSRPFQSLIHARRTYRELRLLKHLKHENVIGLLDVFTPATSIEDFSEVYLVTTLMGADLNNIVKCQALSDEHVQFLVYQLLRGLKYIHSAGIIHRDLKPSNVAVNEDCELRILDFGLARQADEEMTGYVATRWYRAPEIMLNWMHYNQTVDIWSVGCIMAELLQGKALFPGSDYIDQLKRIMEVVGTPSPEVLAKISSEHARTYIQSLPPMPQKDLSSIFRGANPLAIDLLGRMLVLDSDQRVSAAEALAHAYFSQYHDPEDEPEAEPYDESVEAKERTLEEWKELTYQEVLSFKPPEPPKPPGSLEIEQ
Sequence of SRPK1 (human) (Q96SB4 whole entry, looked up): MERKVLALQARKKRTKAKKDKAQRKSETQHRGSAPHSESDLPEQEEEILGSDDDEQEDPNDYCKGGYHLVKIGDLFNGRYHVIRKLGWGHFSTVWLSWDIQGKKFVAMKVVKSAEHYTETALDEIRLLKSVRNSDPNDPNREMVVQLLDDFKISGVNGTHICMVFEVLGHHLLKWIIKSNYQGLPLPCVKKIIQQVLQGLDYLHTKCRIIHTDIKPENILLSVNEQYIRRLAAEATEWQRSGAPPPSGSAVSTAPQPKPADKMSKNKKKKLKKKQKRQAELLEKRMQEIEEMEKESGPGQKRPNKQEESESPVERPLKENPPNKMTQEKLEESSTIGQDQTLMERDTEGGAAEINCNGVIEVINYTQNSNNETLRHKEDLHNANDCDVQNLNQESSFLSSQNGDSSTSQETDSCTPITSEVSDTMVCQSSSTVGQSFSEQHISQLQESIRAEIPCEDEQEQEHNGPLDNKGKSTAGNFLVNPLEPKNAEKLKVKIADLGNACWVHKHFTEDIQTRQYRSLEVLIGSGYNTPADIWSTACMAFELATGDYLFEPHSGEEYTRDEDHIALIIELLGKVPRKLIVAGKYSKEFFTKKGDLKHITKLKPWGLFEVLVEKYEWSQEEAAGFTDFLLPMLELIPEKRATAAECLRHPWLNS
Sequence of YES1 (human) (P07947 whole entry, looked up): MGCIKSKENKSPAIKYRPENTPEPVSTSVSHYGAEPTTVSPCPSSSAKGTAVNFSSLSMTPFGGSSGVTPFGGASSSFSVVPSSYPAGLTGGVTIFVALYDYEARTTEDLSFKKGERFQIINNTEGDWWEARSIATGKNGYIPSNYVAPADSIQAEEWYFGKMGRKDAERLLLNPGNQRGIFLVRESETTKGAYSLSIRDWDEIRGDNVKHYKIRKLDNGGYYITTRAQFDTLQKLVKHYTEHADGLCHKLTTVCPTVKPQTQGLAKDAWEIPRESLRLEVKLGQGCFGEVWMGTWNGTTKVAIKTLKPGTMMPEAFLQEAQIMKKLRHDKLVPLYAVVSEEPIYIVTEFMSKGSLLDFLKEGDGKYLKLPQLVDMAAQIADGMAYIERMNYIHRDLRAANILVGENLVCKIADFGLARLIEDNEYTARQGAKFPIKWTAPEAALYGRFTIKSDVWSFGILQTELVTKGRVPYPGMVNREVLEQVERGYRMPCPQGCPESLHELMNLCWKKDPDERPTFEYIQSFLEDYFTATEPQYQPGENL
Sequence of BTK (human) (Q06187 whole entry, looked up): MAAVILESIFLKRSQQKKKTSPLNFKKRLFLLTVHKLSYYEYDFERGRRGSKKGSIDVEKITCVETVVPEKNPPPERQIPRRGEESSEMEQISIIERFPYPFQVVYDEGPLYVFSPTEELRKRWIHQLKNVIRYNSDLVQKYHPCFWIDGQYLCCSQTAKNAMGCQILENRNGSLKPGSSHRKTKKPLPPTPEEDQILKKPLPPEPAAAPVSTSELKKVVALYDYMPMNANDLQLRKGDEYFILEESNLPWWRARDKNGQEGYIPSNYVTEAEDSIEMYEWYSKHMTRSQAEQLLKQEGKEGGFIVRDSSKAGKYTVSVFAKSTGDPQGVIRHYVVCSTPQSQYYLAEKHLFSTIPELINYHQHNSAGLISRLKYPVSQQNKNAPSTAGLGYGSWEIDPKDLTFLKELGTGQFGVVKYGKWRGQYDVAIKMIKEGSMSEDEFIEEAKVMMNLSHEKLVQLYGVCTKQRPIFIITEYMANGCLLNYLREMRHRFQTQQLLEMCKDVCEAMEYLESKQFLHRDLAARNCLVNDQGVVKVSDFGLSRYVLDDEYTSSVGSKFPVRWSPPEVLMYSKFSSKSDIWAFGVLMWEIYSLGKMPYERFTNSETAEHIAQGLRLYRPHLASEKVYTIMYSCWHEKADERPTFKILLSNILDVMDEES
Sequence of MAPK1 (human) (P28482 whole entry, looked up): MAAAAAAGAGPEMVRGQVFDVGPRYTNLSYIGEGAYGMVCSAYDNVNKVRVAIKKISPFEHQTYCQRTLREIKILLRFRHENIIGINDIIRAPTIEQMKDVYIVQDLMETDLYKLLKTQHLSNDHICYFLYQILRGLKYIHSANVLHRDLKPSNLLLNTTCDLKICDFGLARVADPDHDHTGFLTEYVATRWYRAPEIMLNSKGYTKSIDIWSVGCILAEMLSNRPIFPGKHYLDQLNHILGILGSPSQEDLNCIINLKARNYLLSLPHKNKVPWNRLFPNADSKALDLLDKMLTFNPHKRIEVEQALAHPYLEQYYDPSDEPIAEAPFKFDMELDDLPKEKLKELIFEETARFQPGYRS
Sequence of MKNK2 (human) (Q9HBH9 whole entry, looked up): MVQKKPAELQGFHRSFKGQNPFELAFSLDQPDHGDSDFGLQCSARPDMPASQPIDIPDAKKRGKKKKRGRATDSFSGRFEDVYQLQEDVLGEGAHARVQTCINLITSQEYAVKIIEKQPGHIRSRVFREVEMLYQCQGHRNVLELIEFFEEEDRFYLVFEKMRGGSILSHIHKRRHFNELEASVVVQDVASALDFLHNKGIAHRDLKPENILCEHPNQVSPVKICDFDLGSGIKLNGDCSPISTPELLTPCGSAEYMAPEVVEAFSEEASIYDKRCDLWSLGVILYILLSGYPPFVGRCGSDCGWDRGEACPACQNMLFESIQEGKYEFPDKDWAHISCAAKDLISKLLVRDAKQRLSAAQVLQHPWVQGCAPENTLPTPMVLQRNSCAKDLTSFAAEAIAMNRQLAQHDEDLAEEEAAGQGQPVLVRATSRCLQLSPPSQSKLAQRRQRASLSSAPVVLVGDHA
Sequence of DYRK2 (human) (Q92630 whole entry, looked up): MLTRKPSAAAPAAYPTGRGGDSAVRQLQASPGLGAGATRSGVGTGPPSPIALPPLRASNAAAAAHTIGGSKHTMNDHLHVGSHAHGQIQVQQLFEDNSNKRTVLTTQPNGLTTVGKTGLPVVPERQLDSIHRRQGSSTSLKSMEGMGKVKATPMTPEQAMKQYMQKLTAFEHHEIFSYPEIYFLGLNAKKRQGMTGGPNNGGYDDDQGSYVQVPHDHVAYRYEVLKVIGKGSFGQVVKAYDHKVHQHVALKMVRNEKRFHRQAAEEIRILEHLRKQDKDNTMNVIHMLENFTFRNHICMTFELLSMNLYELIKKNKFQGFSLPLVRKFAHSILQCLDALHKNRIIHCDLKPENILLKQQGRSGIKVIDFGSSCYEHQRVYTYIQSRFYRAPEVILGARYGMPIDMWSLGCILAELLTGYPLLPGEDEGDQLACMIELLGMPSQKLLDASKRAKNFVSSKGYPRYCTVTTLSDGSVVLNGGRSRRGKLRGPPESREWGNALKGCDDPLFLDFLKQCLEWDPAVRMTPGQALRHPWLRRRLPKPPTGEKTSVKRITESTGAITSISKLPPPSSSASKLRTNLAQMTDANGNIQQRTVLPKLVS
Sequence of NEK6 (human) (Q9HC98 whole entry, looked up): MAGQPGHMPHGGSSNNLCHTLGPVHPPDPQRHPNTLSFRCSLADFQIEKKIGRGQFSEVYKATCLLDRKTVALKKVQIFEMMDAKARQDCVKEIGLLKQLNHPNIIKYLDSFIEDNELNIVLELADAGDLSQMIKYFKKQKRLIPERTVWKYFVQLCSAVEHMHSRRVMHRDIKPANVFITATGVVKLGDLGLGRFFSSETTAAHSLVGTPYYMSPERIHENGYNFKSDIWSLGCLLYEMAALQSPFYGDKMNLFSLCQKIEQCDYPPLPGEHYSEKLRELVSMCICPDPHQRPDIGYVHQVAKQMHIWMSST
Sequence of MAPK14 (human) (Q16539 whole entry, looked up): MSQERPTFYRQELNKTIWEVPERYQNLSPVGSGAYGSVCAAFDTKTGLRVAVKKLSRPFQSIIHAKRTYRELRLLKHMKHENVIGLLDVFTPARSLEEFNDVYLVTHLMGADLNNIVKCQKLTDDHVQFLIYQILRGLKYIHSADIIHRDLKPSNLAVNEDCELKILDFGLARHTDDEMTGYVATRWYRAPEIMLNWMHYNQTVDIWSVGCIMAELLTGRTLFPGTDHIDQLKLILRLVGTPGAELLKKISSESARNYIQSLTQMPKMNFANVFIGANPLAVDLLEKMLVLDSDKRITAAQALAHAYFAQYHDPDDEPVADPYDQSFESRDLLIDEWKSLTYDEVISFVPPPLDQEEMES
Sequence of AKT2 (human), P31751 [S474D] (P31751 whole entry S474D, looked up): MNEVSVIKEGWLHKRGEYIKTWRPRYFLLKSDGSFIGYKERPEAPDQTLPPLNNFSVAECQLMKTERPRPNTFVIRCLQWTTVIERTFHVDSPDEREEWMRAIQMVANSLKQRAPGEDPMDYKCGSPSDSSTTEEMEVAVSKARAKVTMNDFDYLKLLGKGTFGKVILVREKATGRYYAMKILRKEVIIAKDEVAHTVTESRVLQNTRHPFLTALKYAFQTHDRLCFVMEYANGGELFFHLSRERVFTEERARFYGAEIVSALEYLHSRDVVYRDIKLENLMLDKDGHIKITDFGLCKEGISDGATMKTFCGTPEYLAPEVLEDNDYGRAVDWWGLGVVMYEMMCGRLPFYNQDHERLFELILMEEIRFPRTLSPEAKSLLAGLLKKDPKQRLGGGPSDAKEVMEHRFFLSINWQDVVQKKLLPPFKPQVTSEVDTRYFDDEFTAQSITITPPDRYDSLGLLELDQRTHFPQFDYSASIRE

- residual activity (MAPK11 (human); compound 0.1 µM): 102%
- residual activity (MAPK11 (human); compound 1.0 µM): 89%
- residual activity (MAPK11 (human); compound 10.0 µM): 90%
- residual activity (DYRK2 (human); compound 0.1 µM): 98%
- residual activity (DYRK2 (human); compound 1.0 µM): 94%
- residual activity (DYRK2 (human); compound 10.0 µM): 94%
- residual activity (BTK (human); compound 0.1 µM): 88%
- residual activity (BTK (human); compound 1.0 µM): 99%
- residual activity (BTK (human); compound 10.0 µM): 79%
- residual activity (MARK4 (human); compound 1.0 µM): 110%
- residual activity (MARK4 (human); compound 10.0 µM): 85%
- residual activity (INSRR (human); compound 0.1 µM): 73%
- residual activity (INSRR (human); compound 1.0 µM): 77%
- residual activity (INSRR (human); compound 10.0 µM): 53%
- residual activity (SRPK1 (human); compound 0.1 µM): 94%
- residual activity (SRPK1 (human); compound 1.0 µM): 92%
- residual activity (SRPK1 (human); compound 10.0 µM): 86%
- residual activity (CLK2 (human); compound 1.0 µM): 60%
- residual activity (CLK2 (human); compound 10.0 µM): 18%
- residual activity (CSNK1D (human); compound 0.1 µM): 99%
- residual activity (CSNK1D (human); compound 1.0 µM): 106%
- residual activity (CSNK1D (human); compound 10.0 µM): 91%
- residual activity (INSR (human); compound 0.1 µM): 127%
- residual activity (INSR (human); compound 1.0 µM): 101%
- residual activity (INSR (human); compound 10.0 µM): 100%
- residual activity (YES1 (human); compound 0.1 µM): 69%
- residual activity (YES1 (human); compound 1.0 µM): 82%
- residual activity (YES1 (human); compound 10.0 µM): 80%
- residual activity (FLT1 (human); compound 0.1 µM): 90%
- residual activity (FLT1 (human); compound 1.0 µM): 89%
- residual activity (FLT1 (human); compound 10.0 µM): 53%
- residual activity (RPS6KA1 KD1 KD2 (human); compound 0.1 µM): 88%
- residual activity (RPS6KA1 KD1 KD2 (human); compound 1.0 µM): 66%
- residual activity (RPS6KA1 KD1 KD2 (human); compound 10.0 µM): 34%
- residual activity (NEK2 (human); compound 0.1 µM): 91%
- residual activity (NEK2 (human); compound 1.0 µM): 95%
- residual activity (NEK2 (human); compound 10.0 µM): 87%
- residual activity (JAK2 JH1 JH2 (human); compound 1.0 µM): 90%
- residual activity (JAK2 JH1 JH2 (human); compound 10.0 µM): 86%
- residual activity (MARK3 (human); compound 0.1 µM): 100%
- residual activity (MARK3 (human); compound 1.0 µM): 108%
- residual activity (MARK3 (human); compound 10.0 µM): 99%
- residual activity (PRKCA (human); compound 0.1 µM): 114%
- residual activity (PRKCA (human); compound 1.0 µM): 106%
- residual activity (PRKCA (human); compound 10.0 µM): 80%
- residual activity (RIPK2 (human); compound 1.0 µM): 100%
- residual activity (RIPK2 (human); compound 10.0 µM): 95%
- residual activity (HIPK1 (human); compound 1.0 µM): 104%
- residual activity (HIPK1 (human); compound 10.0 µM): 91%
- residual activity (IRAK4 (human); compound 1.0 µM): 63%
- residual activity (IRAK4 (human); compound 10.0 µM): 24%
- residual activity (CSNK2A1 (human); compound 0.1 µM): 90%
- residual activity (CSNK2A1 (human); compound 1.0 µM): 102%
- residual activity (CSNK2A1 (human); compound 10.0 µM): 77%
- residual activity (MAP3K9 (human); compound 1.0 µM): 92%
- residual activity (MAP3K9 (human); compound 10.0 µM): 40%
- residual activity ([1]; compound 0.1 µM): 86%
- residual activity ([1]; compound 1.0 µM): 111%
- residual activity ([1]; compound 10.0 µM): 61%
- residual activity (MAPKAPK3 (human); compound 1.0 µM): 90%
- residual activity (MAPKAPK3 (human); compound 10.0 µM): 100%
- residual activity (AURKA (human); compound 1.0 µM): 102%
- residual activity (AURKA (human); compound 10.0 µM): 94%
- residual activity (MAPK1 (human); compound 0.1 µM): 93%
- residual activity (MAPK1 (human); compound 1.0 µM): 103%
- residual activity (MAPK1 (human); compound 10.0 µM): 97%
- residual activity (MAP3K1 (human); compound 1.0 µM): 92%
- residual activity (MAP3K1 (human); compound 10.0 µM): 45%
- residual activity (NEK6 (human); compound 0.1 µM): 84%
- residual activity (NEK6 (human); compound 1.0 µM): 108%
- residual activity (NEK6 (human); compound 10.0 µM): 83%
- residual activity (RPS6KA5 KD1 KD2 (human); compound 0.1 µM): 94%
- residual activity (RPS6KA5 KD1 KD2 (human); compound 1.0 µM): 90%
- residual activity (RPS6KA5 KD1 KD2 (human); compound 10.0 µM): 68%
- residual activity (HIPK2 (human); compound 1.0 µM): 86%
- residual activity (HIPK2 (human); compound 10.0 µM): 38%
- residual activity ([2]; compound 1.0 µM): 93%
- residual activity ([2]; compound 10.0 µM): 97%
- residual activity ([3]; compound 0.1 µM): 75%
- residual activity ([3]; compound 1.0 µM): 70%
- residual activity ([3]; compound 10.0 µM): 61%
- residual activity (MKNK2 (human); compound 0.1 µM): 90%
- residual activity (MKNK2 (human); compound 1.0 µM): 92%
- residual activity (MKNK2 (human); compound 10.0 µM): 96%
- residual activity (MAPK14 (human); compound 0.1 µM): 87%
- residual activity (MAPK14 (human); compound 1.0 µM): 91%
- residual activity (MAPK14 (human); compound 10.0 µM): 99%
- residual activity (NTRK1 (human); compound 1.0 µM): 47%
- residual activity (NTRK1 (human); compound 10.0 µM): 30%
Compound: O=C(Nc1ccccc1-c1cn2c(CN3CCNCC3)csc2n1)c1cnc2ccccc2n1
- residual activity (MAPK15 (human); compound 0.1 µM): 81%
- residual activity (MAPK15 (human); compound 1.0 µM): 96%
- residual activity (MAPK15 (human); compound 10.0 µM): 86%
